Assay results as given in the supplement of paper PMC10307832.

The cell lines below were run with COc1cccc2cc(-c3nc([C@H]4CC[C@H](C(=O)O)CC4)n4ncnc(N)c34)[nH]c12 [OSI-027] + CCNC(=O)c1noc(-c2cc(C(C)C)c(O)cc2O)c1-c1ccc(CN2CCOCC2)cc1 [Luminespib] (partner 0.01 µM) (assay: relative viability (nuclei count vs DMSO), 5 days (fraction); higher = more cells survive). Settings: first compound 0.01 µM.
Procedure, shortened: (§1)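 After 5 days of treatment, lung cancer cells in 1536-well plates were fixed and stained in a single step (final 0.05% Triton X-100, 1% formaldehyde, 1 ug/ml Hoechst) and their nuclei counted on 4× images. Treatment had been applied by pin tool the day after seeding as one drug alone or as a fixed anchor-drug dose with five library-drug doses (not always all listed) in √10 steps. Relative viability is the nuclei count of treated wells divided by that of vehicle wells, and values are medians of duplicate plates.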

How did the relative viability turn out when NCI-H322M was run?
Its relative viability is 0.84.

With NCI-H596 as the cell line, how does the relative viability read?
Its relative viability is 0.96.

201T was tested. Which relative viability did it give?
Its relative viability is 1.09.

How did the relative viability turn out when SK-MES-1 was run?
The relative viability was 0.75.

Same assay, conditions: first compound 0.03162 µM

Which relative viability does the source give for NCI-H322M here?
Its relative viability is 0.831.

NCI-H596 was tested. Which relative viability did it give?
Its relative viability is 0.908.

201T was tested. Which relative viability did it give?
Its relative viability is 1.06.

For SK-MES-1, which relative viability is on record?
Its relative viability is 0.63.

Same assay, conditions: first compound 0.1 µM

Which relative viability does the source give for NCI-H322M here?
Its relative viability is 0.66.

How did the relative viability turn out when NCI-H596 was run?
Its relative viability is 0.988.

201T was tested. Which relative viability did it give?
The relative viability was 1.

With SK-MES-1 as the cell line, how does the relative viability read?
Its relative viability is 0.731.

Same assay, conditions: first compound 0.3162 µM

Which relative viability does the source give for NCI-H322M here?
The relative viability was 0.446.

For NCI-H596, which relative viability is on record?
Its relative viability is 0.851.

How did the relative viability turn out when 201T was run?
Its relative viability is 0.948.

Which relative viability does the source give for SK-MES-1 here?
The relative viability was 0.554.

Same assay, conditions: first compound 1 µM

How did the relative viability turn out when NCI-H322M was run?
Its relative viability is 0.369.

For NCI-H596, which relative viability is on record?
The relative viability was 0.574.

For 201T, which relative viability is on record?
Its relative viability is 0.485.

For SK-MES-1, which relative viability is on record?
Its relative viability is 0.227.

What follows are cell lines tested with Cc1nc(NC(=O)N2CCC[C@H]2C(N)=O)sc1-c1ccnc(C(C)(C)C(F)(F)F)c1 [Alpelisib] + CS(=O)(=O)CCNCc1ccc(-c2ccc3ncnc(Nc4ccc(OCc5cccc(F)c5)c(Cl)c4)c3c2)o1 [Lapatinib] (partner 2 µM) in the same assay as above. Settings: first compound 0.04 µM.
Procedure, shortened: as §1

With NCI-H322M as the cell line, how does the relative viability read?
The relative viability was 0.535.

How did the relative viability turn out when NCI-H596 was run?
The relative viability was 0.98.

201T was tested. Which relative viability did it give?
Its relative viability is 1.02.

Which relative viability does the source give for SK-MES-1 here?
Its relative viability is 0.454.

Same assay, conditions: first compound 0.1265 µM

For NCI-H322M, which relative viability is on record?
Its relative viability is 0.666.

How did the relative viability turn out when NCI-H596 was run?
The relative viability was 1.02.

How did the relative viability turn out when 201T was run?
Its relative viability is 0.988.

For SK-MES-1, which relative viability is on record?
The relative viability was 0.463.

Same assay, conditions: first compound 0.4 µM

How did the relative viability turn out when NCI-H322M was run?
The relative viability was 0.518.

How did the relative viability turn out when NCI-H596 was run?
The relative viability was 0.825.

How did the relative viability turn out when 201T was run?
The relative viability was 1.02.

SK-MES-1 was tested. Which relative viability did it give?
Its relative viability is 0.483.

Same assay, conditions: first compound 1.265 µM

For NCI-H322M, which relative viability is on record?
Its relative viability is 0.361.

NCI-H596 was tested. Which relative viability did it give?
Its relative viability is 0.54.

For 201T, which relative viability is on record?
The relative viability was 1.01.

How did the relative viability turn out when SK-MES-1 was run?
Its relative viability is 0.409.

Same assay, conditions: first compound 4 µM

Which relative viability does the source give for NCI-H322M here?
Its relative viability is 0.423.

Which relative viability does the source give for NCI-H596 here?
The relative viability was 0.413.

201T was tested. Which relative viability did it give?
The relative viability was 0.945.

How did the relative viability turn out when SK-MES-1 was run?
Its relative viability is 0.37.

Each cell line was assayed with COc1cccc2cc(-c3nc([C@H]4CC[C@H](C(=O)O)CC4)n4ncnc(N)c34)[nH]c12 [OSI-027] + CS(=O)(=O)CCNCc1ccc(-c2ccc3ncnc(Nc4ccc(OCc5cccc(F)c5)c(Cl)c4)c3c2)o1 [Lapatinib] (partner 2 µM) in the same assay as above. Settings: first compound 0.01 µM.
Procedure, shortened: as §1

NCI-H322M was tested. Which relative viability did it give?
The relative viability was 0.578.

NCI-H596 was tested. Which relative viability did it give?
The relative viability was 1.05.

How did the relative viability turn out when 201T was run?
Its relative viability is 1.05.

SK-MES-1 was tested. Which relative viability did it give?
The relative viability was 0.481.

Same assay, conditions: first compound 0.03162 µM

Which relative viability does the source give for NCI-H322M here?
Its relative viability is 0.651.

For NCI-H596, which relative viability is on record?
Its relative viability is 1.19.

How did the relative viability turn out when 201T was run?
Its relative viability is 1.08.

With SK-MES-1 as the cell line, how does the relative viability read?
The relative viability was 0.435.

Same assay, conditions: first compound 0.1 µM

How did the relative viability turn out when NCI-H322M was run?
The relative viability was 0.543.

For NCI-H596, which relative viability is on record?
The relative viability was 0.934.

Which relative viability does the source give for 201T here?
The relative viability was 0.986.

How did the relative viability turn out when SK-MES-1 was run?
Its relative viability is 0.371.

Same assay, conditions: first compound 0.3162 µM

Which relative viability does the source give for NCI-H322M here?
The relative viability was 0.57.

Which relative viability does the source give for NCI-H596 here?
The relative viability was 0.742.

201T was tested. Which relative viability did it give?
Its relative viability is 0.975.

For SK-MES-1, which relative viability is on record?
The relative viability was 0.316.

Same assay, conditions: first compound 1 µM

How did the relative viability turn out when NCI-H322M was run?
Its relative viability is 0.559.

For NCI-H596, which relative viability is on record?
The relative viability was 0.832.

201T was tested. Which relative viability did it give?
The relative viability was 0.957.

SK-MES-1 was tested. Which relative viability did it give?
Its relative viability is 0.253.

These cell lines were tested with CCCS(=O)(=O)Nc1ccc(F)c(C(=O)c2c[nH]c3ncc(-c4ccc(Cl)cc4)cc23)c1F [Vemurafenib] + O=C(CCCCCCC(=O)Nc1ccccc1)NO [Vorinostat] (partner 1 µM) in the same assay as above. Settings: first compound 0.03162 µM.
Procedure, shortened: as §1

With NCI-H322M as the cell line, how does the relative viability read?
Its relative viability is 0.84.

For NCI-H596, which relative viability is on record?
The relative viability was 0.587.

How did the relative viability turn out when 201T was run?
Its relative viability is 0.944.

How did the relative viability turn out when SK-MES-1 was run?
The relative viability was 1.06.

Same assay, conditions: first compound 0.1 µM

For NCI-H596, which relative viability is on record?
Its relative viability is 0.742.

How did the relative viability turn out when 201T was run?
The relative viability was 0.845.

Same assay, conditions: first compound 0.3162 µM

NCI-H322M was tested. Which relative viability did it give?
Its relative viability is 1.11.

Which relative viability does the source give for NCI-H596 here?
The relative viability was 0.465.

Which relative viability does the source give for 201T here?
The relative viability was 0.944.

With SK-MES-1 as the cell line, how does the relative viability read?
Its relative viability is 0.949.

Same assay, conditions: first compound 1 µM

With NCI-H322M as the cell line, how does the relative viability read?
Its relative viability is 0.829.

Which relative viability does the source give for NCI-H596 here?
The relative viability was 0.497.

With 201T as the cell line, how does the relative viability read?
The relative viability was 0.986.

For SK-MES-1, which relative viability is on record?
The relative viability was 1.01.
